Assay results: patent US20230128114A1, “METHODS AND COMPOSITIONS FOR TREATING OR PREVENTING AN INFLAMMATORY CONDITION” (priority 2020, published 2023)

Experiment: Solubility of formulations for in vivo analysis (visual observation)
Format: physicochemical
Excerpt: Cannabidiol (CBD) and hydroxychloroquine (HCQ), were purchased by Pharmacology Discovery Services Taiwan, Ltd. The formulations are summarised in Table 3.

Solubil.: I
Structure (SMILES): C[C@@H]1C[C@H]2[C@@H]3CCC4=CC(=O)C=C[C@]4(C)[C@@]3(F)[C@@H](O)C[C@]2(C)[C@@]1(O)C(=O)CO [Dexamethasone]
